Target: T1, h-Sortilin (Homo sapiens, UniProt Q99523)
T1 sequence (Q99523 78-831): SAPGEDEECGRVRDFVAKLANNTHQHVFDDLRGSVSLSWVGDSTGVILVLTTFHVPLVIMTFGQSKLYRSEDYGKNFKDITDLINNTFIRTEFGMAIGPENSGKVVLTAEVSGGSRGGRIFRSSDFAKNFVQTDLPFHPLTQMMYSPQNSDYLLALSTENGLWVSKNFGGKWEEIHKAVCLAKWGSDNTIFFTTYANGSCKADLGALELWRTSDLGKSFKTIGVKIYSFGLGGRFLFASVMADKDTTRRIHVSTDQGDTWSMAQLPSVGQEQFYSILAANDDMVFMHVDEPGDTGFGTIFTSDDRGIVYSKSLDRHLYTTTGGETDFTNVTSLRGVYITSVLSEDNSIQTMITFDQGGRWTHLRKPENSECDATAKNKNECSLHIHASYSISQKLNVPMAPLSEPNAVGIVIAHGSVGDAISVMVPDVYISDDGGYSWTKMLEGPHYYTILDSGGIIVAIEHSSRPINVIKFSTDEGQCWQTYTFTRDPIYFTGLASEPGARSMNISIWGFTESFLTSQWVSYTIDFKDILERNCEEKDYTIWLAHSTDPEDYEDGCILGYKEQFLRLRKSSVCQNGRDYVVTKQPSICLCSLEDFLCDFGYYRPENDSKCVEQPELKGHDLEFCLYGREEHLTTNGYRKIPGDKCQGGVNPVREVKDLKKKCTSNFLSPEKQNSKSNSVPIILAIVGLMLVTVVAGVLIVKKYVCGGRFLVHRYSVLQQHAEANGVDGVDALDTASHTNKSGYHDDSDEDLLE
Assay: Neurotensin scintillation proximity assay (displacement of [3H]-neurotensin binding)
Conditions: 150 nM 6his-Sortilin, 5 nM [3H]-Neurotensin; average of at least 2 determinations; read-out: IC50 [3H]Neurotensin SPA
Procedure, shortened: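 Compounds pre-incubated 30 min at room temperature with 150 nM 6His-sortilin in HEPES pH 7.4 buffer with NaCl, CaCl2, BSA and Tween-20, then 5 nM [3H]-neurotensin and Ni chelate SPA beads added; read after 6 h. IC50 from 8-point variable-slope fits, mean of at least 2 determinations.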

IC50 [nM] | Structure (SMILES)
230 | C[C@H](N[C@@H](CCC(C)(C)C)C(=O)O)c1ccc2c(c1)CCCO2 [Example 50]
260 | C[C@@H](N[C@@H](CCC(C)(C)C)C(=O)O)c1ccc2c(c1)CCCO2 [Example 52]
210 | C[C@@H](N[C@@H](CCC(C)(C)C)C(=O)O)c1ccc2c(c1)OCCC2 [Example 9]
230 | CC(C)(C)CC[C@H](NCc1ccc2c(c1)COCC2)C(=O)O [Example 3, (S)-2-((isochroman-7-ylmethyl)amino)-5,5-dimethylhexanoic acid]

— patent EP4342530A1, “SORTILIN MODULATORS” (Insusense ApS, priority 2022, dated 2024)
